Experiments:
[1] = Moisture content of powder after atmospheric spray freeze drying, original equipment; format: physicochemical; conditions: 15 wt % mannitol aqueous solution; dried 1 hr at around -15° C., then raised to room temperature within 30 minutes
Experimental: The apparatus is allowed to run for approximately 5 to 15 minutes to reach the desired temperature in the chamber 110, 210, 310 via gas cooled by a refrigeration system providing gas flow into the chamber 110 through the porous wall. The aqueous solution or suspension of the substances to be dried is then sprayed using the atomizer 102, 202, 302 and frozen simultaneously at a chosen temperature by the surrounding curtain of liquid nitrogen generated from ring nozzle 218, 318 or an equivalent such as cryogenic flow from nozzles 118 through porous sidewalls of chamber 110. The frozen powder is conveyed down to the exit filter 122, 222, 322 by the concurrent downstream flow. After spray freezing, drying begins. The frozen powder collected on the exit filter 122, 222, 322, at the bottom is dried continuously at atmospheric pressure until the target moisture of the frozen powder is removed by the cold desiccated gas stream. After atmospheric spray-freeze drying, a loose powder remains on the exit filter 122, 222, 322. This powder can easily be broken up into free flowing, dry porous particles usually of approximately the same size and shape as the original frozen droplets.
In one example, powder was produced using the method described above. […] The moisture content was measured to be only 0.9 wt %.

[2] = Moisture content of powder after ASFD run, second generation equipment; format: physicochemical; conditions: 10% BGG aqueous solution, 50 ml; spray gas 5 SCFM, drying 20 SCFM; after three hours and thirty minutes
Experimental: A typical ASFD run to dry Bovine Gamma Globulin (BGG) was conducted per a stepwise procedure like the following example. A solution of BGG was prepared such that the BGG constituted 10% by weight of an aqueous solution. Once the inner chamber was cooled to a temperature of −140° F., 50 ml of solution was sprayed at a rate of 1 ml per second and at a pressure of 40 psi into the reactor chamber after the flow of cooling gas had been decreased to 5 SCFM. A flow rate of 20 SCFM was then set for drying. Temperature during the first hour was set at 30° F., and increased by five degrees at hour two and hour three. […] After three hours and thirty minutes the powder was removed from the chamber and tested for water content.

| moisture content [1] [wt %] | Compound | moisture content [2] [%] |
| --- | --- | --- |
| 0.9 | OC[C@@H](O)[C@@H](O)[C@H](O)[C@H](O)CO [mannitol] | – |
| – | Bovine Gamma Globulin [BGG] | 4.2 |
